Biological target: T1, human cathepsin K (Homo sapiens, UniProt P43235)
T1 construct: The proform of cathepsin K was converted to mature cathepsin K by brief exposure to pH 4; made in house; host or cells: baculovirus; Trichoplusia ni High Five cells (virus raised in Sf-9)
T1 sequence (P43235 115-329): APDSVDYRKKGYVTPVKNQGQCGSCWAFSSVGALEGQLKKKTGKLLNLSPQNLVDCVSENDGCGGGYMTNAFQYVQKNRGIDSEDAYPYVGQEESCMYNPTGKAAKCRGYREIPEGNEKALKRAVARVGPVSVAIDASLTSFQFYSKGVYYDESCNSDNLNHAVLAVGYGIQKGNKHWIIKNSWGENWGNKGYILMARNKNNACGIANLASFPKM
Assay: Cathepsin K inhibition assay, fluorogenic substrate Cbz-Phe-Arg-AMC, progress curve method
Format: biochemical
Conditions: Table 1; human recombinant enzyme, pH 5.5, 30° C., 10 μM substrate; read-out: hCat K Ki
Experimental: All assays for cathepsin K were carried out with human and rat recombinant enzyme. Assays for cathepsins S Et V were also carried out with human recombinant enzyme. Assays for human cathepsins B. H. and L were carried out with enzyme, purchased from Athens Research and Technology, Inc., prepared from human liver tissue. […] A stock substrate solution of Cbz-Phe-Arg-AMC was prepared at a concentration of 50 mM in dimethyl sulfoxide. This substrate was diluted into the assay for a final substrate concentration of 10 μM in the rat cathepsin K, human cathepsin K, and human cathepsin B assays; a final substrate concentration of 5 μM in the human cathepsin L assay; and a final substrate concentration of 2 μM in the human cathepsin V assay.
All assays contained 10% dimethyl sulfoxide. […] All assays were conducted at 30° C. Product fluorescence (excitation at 360 nm; emission at 440 nm, (except cathepsin H which used excitation at 340 nm; emission at 420 nm)) was monitored with a PerSeptive Biosystems Cytofluor II fluorescence plate reader. Product progress curves were generated over 2.3 h monitoring the formation of 7-amino-4-methylcoumarin product (or β-naphthalamide for cathepsin H).
Two liters of Spodoptera frugiperda (Sf-9) cells (ATCC) were grown in Grace's Supplemented medium (Life Technologies) supplemented with 2 g/L glucose, 10% a fetal bovine serum (HyClone) and 0.10% pluronic F-68 (Life Technologies). […] The cells continued to grow for 72 h post-infection, before the virus was harvested by centrifugation at 1400× g for 30 min.
One and one-half liters of Trichoplusia ni (T. ni) High Five (TM) cells [JRH Biosciences, Woodland, Calif. […] Media were separated from cells at a rate of 1 L/min using the Centritech 100 (TM) continuous-flow centrifuge (DuPont) operating at 200× g.
Protein Purification: Media (human and rat) were filtered through a Whatman 3 filter, and then loaded onto a 25 mL Poros HS II (26 mm×47 mm) cation exchange column equilibrated in 25 mM sodium acetate at pH 5.5 (equilibration buffer). The column was washed until the absorbance reached the baseline value, and then the protein was eluted with a linear gradient from 0-2 M sodium chloride in the equilibration buffer. Column fractions were analyzed by SDS-PAGE, N-terminal sequencing, and mass spectrometry. Fractions containing the proform of cathepsin K were pooled and frozen at −80° C. The proform was concentrated in an Amicon Centriprep 10 and fractionated with a Superdex 75 column (26 mm×600 mm, Pharmacia) equilibrated in 400 mM sodium chloride, 25 mM sodium acetate at pH 5.5.
Cathepsin K Activation: The proform of cathepsin K was converted to mature cathepsin K by brief exposure to pH 4 in the presence of 5 mM L-cysteine. Typically, 5 mM L-cysteine was added to 10 mL of approximately 1 mg/mL procathepsin K. One mL of this solution was diluted ten-fold into 450 mM sodium acetate at pH 4.0 containing 5 mM L-cysteine. This solution was reacted at 23° C. for 2 min before neutralization with 2 mL 1.8 M sodium acetate at pH 6.0. The neutralized sample was added to the remaining 9 mL of procathepsin K. The mixture was incubated at 4° C. for 2-3 days. The activated cathepsin K was chromatographed on a Poros HS II column as described above.
Potential inhibitors were evaluated using the progress curve method. Assays were carried out in the presence of variable concentrations of test compound. Reactions were initiated by addition of buffered solutions of inhibitor and substrate to enzyme. Data analysis was conducted according to one of two procedures depending on the appearance of the progress curves in the presence of inhibitors. […] Ki values were calculated from IC50 values using equation 2 assuming a competitive model. [formula]

| SMILES | Ki [nM] |
| --- | --- |
| CCCC[C@H](NC(=O)O[C@@H](Cn1ccc(-c2ccc(C(F)(F)F)cc2)n1)C(C)(C)C)C(=O)C(=O)Nc1ccn[nH]1 [Example 2, (1R)-2,2-dimethyl-1-({3-[4-(trifluoromethyl)phenyl]-1H-pyrazol-1-yl}methyl)propyl(1S)-1-[oxo(1H-pyrazol-3-ylamino)acetyl]pentylcarbamate] | 1 to 100 |
| CCCC[C@H](NC(=O)O[C@H](Cc1nnc(-c2ccc(C(F)(F)F)cc2)o1)C(C)(C)C)C(=O)C(=O)Nc1ccn[nH]1 [Example 3] | 0.01 to 1 |
| CCCC[C@H](NC(=O)O[C@H](Cc1nnc(-c2ccc(F)cc2)o1)C(C)(C)C)C(=O)C(=O)NCc1cccnc1 [Example 4, (1R)-1-{[5-(4-fluorophenyl)-1,3,4-oxadiazol-2-yl]methyl}-2,2-dimethylpropyl(1S)-1-{oxo[(3-pyridinylmethyl)amino]acetyl}pentylcarbamate] | 1 to 100 |
| CCCC[C@H](NC(=O)O[C@H](Cn1ccc(-c2ccc(C(F)(F)F)cc2)n1)C(C)(C)C)C(=O)C(=O)Nc1ccccn1 [Example 5, (1S)-2,2-dimethyl-1-({3-[4-(trifluoromethyl)phenyl]-1H-pyrazol-1-yl}methyl)propyl(1S)-1-[oxo(2-pyridinylamino)acetyl]pentylcarbamate] | 1 to 100 |
| CCCC[C@H](NC(=O)O[C@H](Cn1cnc(-c2ccc(F)cc2)c1)C(C)(C)C)C(=O)C(=O)N[C@H](C)c1ccccc1 [Example 6, (1S)-1-{[4-(4-fluorophenyl)-1H-imidazol-1-yl]methyl}-2,2-dimethylpropyl (1S)-1-(oxo{[(1R)-1-phenylethyl]amino}acetyl)pentylcarbamate] | 0.01 to 1 |
| CCCC[C@H](NC(=O)O[C@H](Cc1nnc(-c2ccccc2)o1)C(C)(C)CC)C(=O)C(=O)N[C@H](C)c1ccccc1 [Example 8, (1R)-2,2-dimethyl-1-[(5-phenyl-1,3,4-oxadiazol-2-yl)methyl]butyl (1S)-1-(oxo{[(1R)-1-phenylethyl]amino}acetyl)pentylcarbamate] | 1 to 100 |
| CCCC[C@H](NC(=O)O[C@@H](Cc1nnc(-c2ccccc2)o1)C(C)(C)CC)C(=O)C(=O)N[C@H](C)c1ccccc1 [Example 9, (1S)-2,2-dimethyl-1-[(5-phenyl-1,3,4-oxadiazol-2-yl)methyl]butyl(1S)-1-(oxo{[(1R)-1-phenylethyl]amino}acetyl)pentylcarbamate] | 100 to 10000 |
| CCCC[C@H](NC(=O)O[C@H](Cc1nnc(-c2ccccc2)o1)C(C)C)C(=O)C(=O)N[C@H](C)c1ccccc1 [Example 10, (1R)-2-methyl-1-[(5-phenyl-1,3,4-oxadiazol-2-yl)methyl]propyl(1S)-1-(oxo{[(1R)-1-phenylethyl]amino}acetyl)pentylcarbamate] | 0.01 to 1 |
| CCCC[C@H](NC(=O)O[C@@H](Cc1nnc(-c2ccccc2)o1)C(C)C)C(=O)C(=O)N[C@H](C)c1ccccc1 [Example 11, (1S)-2-methyl-1-[(5-phenyl-1,3,4-oxadiazol-2-yl)methyl]propyl(1S)-1-(oxo{[(1R)-1-phenylethyl]amino}acetyl)pentylcarbamate] | 100 to 10000 |
| CCCC[C@H](NC(=O)O[C@H](Cn1cnc(-c2ccccc2)c1)C(C)(C)C)C(=O)C(=O)N[C@H](C)c1ccccc1 [Example 12, (1S)-2,2-dimethyl-1-[(4-phenyl-1H-imidazol-1-yl)methyl]propyl(1S)-1-(oxo{[(1R)-1-phenylethyl]amino}acetyl)pentylcarbamate] | 0.01 to 1 |
| CCCC[C@H](NC(=O)O[C@@H](Cn1cnc(-c2ccccc2)c1)C(C)(C)C)C(=O)C(=O)N[C@H](C)c1ccccc1 [Example 13, (1R)-2,2-dimethyl-1-[(4-phenyl-1H-imidazol-1-yl)methyl]propyl(1S)-1-(oxo{[(1R)-1-phenylethyl]amino}acetyl)pentylcarbamate] | 100 to 10000 |
| CCCC[C@H](NC(=O)O[C@H](Cn1cc(-c2ccc(C(F)(F)F)cc2)cn1)C(C)(C)C)C(=O)C(=O)Nc1ccn[nH]1 [Example 14, (1S)-2,2-dimethyl-1-({4-[4-(trifluoromethyl)phenyl]-1H-pyrazol-1-yl}methyl)propyl(1S)-1-[oxo(1H-pyrazol-5-ylamino)acetyl]pentylcarbamate] | 0.01 to 1 |
| CCCC[C@H](NC(=O)O[C@H](Cc1nnc(-c2ccccc2)o1)C(C)(C)C)C(=O)C(=O)N[C@H](C)c1ccccc1 [Example 15, (1R)-2,2-dimethyl-1-[(5-phenyl-1,3,4-oxadiazol-2-yl)methyl]propyl(1S)-1-(oxo{[(1R)-1-phenylethyl]amino}acetyl)pentylcarbamate] | 0.01 to 1 |
| CCCC[C@H](NC(=O)O[C@@H](Cc1nnc(-c2ccccc2)o1)C(C)(C)C)C(=O)C(=O)N[C@H](C)c1ccccc1 [Example 16, (1S)-2,2-dimethyl-1-[(5-phenyl-1,3,4-oxadiazol-2-yl)methyl]propyl (1S)-1-(oxo{[(1R)-1-phenylethyl]amino}acetyl)pentylcarbamate] | 100 to 10000 |
| CCCC[C@H](NC(=O)O[C@H](Cc1nnc(-c2ccc(C(F)(F)F)cc2)o1)C(C)(C)C)C(=O)C(=O)N[C@H](C)c1ccccc1 [Example 17] | 0.01 to 1 |
| CCCC[C@H](NC(=O)O[C@@H](Cc1nnc(-c2ccc(C(F)(F)F)cc2)o1)C(C)(C)C)C(=O)C(=O)N[C@H](C)c1ccccc1 [Example 18, (1S)-2,2-dimethyl-1-({5-[4-(trifluoromethyl)phenyl]-1,3,4-oxadiazol-2-yl}methyl)propyl(1S)-1-(oxo{[(1R)-1-phenylethyl]amino}acetyl)pentylcarbamate] | 100 to 10000 |
| CCCC[C@H](NC(=O)O[C@H](Cc1nnc(-c2ccc(F)cc2)o1)C(C)(C)C)C(=O)C(=O)N[C@H](C)c1ccccc1 [Example 19, (1R)-1-{[5-(4-fluorophenyl)-1,3,4-oxadiazol-2-yl]methyl}-2,2-dimethylpropyl(1S)-1-(oxo{[(1R)-1-phenylethyl]amino}acetyl)pentylcarbamate] | 0.01 to 1 |
| CCCC[C@H](NC(=O)O[C@@H](Cc1nnc(-c2ccc(F)cc2)o1)C(C)(C)C)C(=O)C(=O)N[C@H](C)c1ccccc1 [Example 20, (1S)-1-{[5-(4-fluorophenyl)-1,3,4-oxadiazol-2-yl]methyl}-2,2-dimethylpropyl(1S)-1-(oxo{[(1R)-1-phenylethyl]amino}acetyl)pentylcarbamate] | 100 to 10000 |
| CCCC[C@H](NC(=O)O[C@H](Cc1nnc(-c2ccc(F)cc2)o1)C(C)(C)C)C(=O)C(=O)Nc1ccccn1 [Example 21, (1R)-1-{[5-(4-fluorophenyl)-1,3,4-oxadiazol-2-yl]methyl}-2,2-dimethylpropyl(1S)-1-[oxo(2-pyridinylamino)acetyl]pentylcarbamate] | 100 to 10000 |
| CCCC[C@H](NC(=O)O[C@H](Cc1nnc(-c2ccc(F)cc2)o1)C(C)(C)C)C(=O)C(=O)Nc1ccn[nH]1 [Example 23, (1R)-1-{[5-(4-fluorophenyl)-1,3,4-oxadiazol-2-yl]methyl}-2,2-dimethylpropyl(1S)-1-[oxo(1H-pyrazol-5-ylamino)acetyl]pentylcarbamate] | 0.01 to 1 |
| CCCC[C@H](NC(=O)O[C@H](Cc1nnc(-c2ccc(F)cc2)o1)C(C)(C)C)C(=O)C(=O)NCc1ccncc1 [Example 24, (1R)-1-{[5-(4-fluorophenyl)-1,3,4-oxadiazol-2-yl]methyl}-2,2-dimethylpropyl(1S)-1-{oxo[(4-pyridinylmethyl)amino]acetyl}pentylcarbamate] | 1 to 100 |
| CCCC[C@H](NC(=O)O[C@H](Cc1nnc(-c2ccc(F)cc2)o1)C(C)(C)C)C(=O)C(=O)N[C@H]1CCCNC1=O [Example 25] | 0.01 to 1 |
